PubChem BioAssay (NCI)
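Assay format: 96-well plates, 48-hour exposure. At the GI50, growth is halved. TGI: total growth inhibition.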

Experiments:
Experiment in all cases: NCI tumour cell line growth inhibition, 48 h
786-0 renal = system: 786-0 renal
A498 renal = system: A498 renal
A549 NSCLC = system: A549 NSCLC
ACHN renal = system: ACHN renal
BT-549 breast = system: BT-549 breast
CAKI-1 renal = system: CAKI-1 renal
CCRF-CEM leukemia = system: CCRF-CEM leukemia
COLO 205 colon = system: COLO 205 colon
DU-145 prostate = system: DU-145 prostate
EKVX NSCLC = system: EKVX NSCLC
HCC-2998 colon = system: HCC-2998 colon
HCT-116 colon = system: HCT-116 colon
HCT-15 colon = system: HCT-15 colon
HL-60(TB) leukemia = system: HL-60(TB) leukemia
HOP-62 NSCLC = system: HOP-62 NSCLC
HS 578T breast = system: HS 578T breast
HT29 colon = system: HT29 colon
IGROV1 ovarian = system: IGROV1 ovarian
K-562 leukemia = system: K-562 leukemia
KM12 colon = system: KM12 colon
LOX IMVI melanoma = system: LOX IMVI melanoma
M14 melanoma = system: M14 melanoma
MALME-3M melanoma = system: MALME-3M melanoma
MCF7 breast = system: MCF7 breast
MDA-MB-231 breast = system: MDA-MB-231 breast
MDA-MB-435 = system: MDA-MB-435
MOLT-4 leukemia = system: MOLT-4 leukemia
NCI-H226 lung = system: NCI-H226 lung

## Clc1ccc(CN2COc3c(ccc4cccnc34)C2)cc1Cl
786-0 renal
  GI50: 1990 nM
  TGI: 5850 nM
A498 renal
  GI50: 1720 nM
  TGI: 11800 nM
A549 NSCLC
  GI50: 1640 nM
  TGI: 12900 nM
ACHN renal
  GI50: 525 nM
  TGI: 10600 nM
BT-549 breast
  GI50: 2460 nM
  TGI: 17500 nM
CAKI-1 renal
  GI50: 3280 nM
  TGI: 13200 nM
CCRF-CEM leukemia
  GI50: 578 nM
  TGI: 3690 nM
COLO 205 colon
  GI50: 3180 nM
  TGI: 11900 nM
DU-145 prostate
  GI50: 1770 nM
  TGI: 14800 nM
EKVX NSCLC
  GI50: 1310 nM
  TGI: 15200 nM
HCC-2998 colon
  GI50: 2280 nM
  TGI: 8770 nM
HCT-116 colon
  GI50: 712 nM
  TGI: 2780 nM
HCT-15 colon
  GI50: 483 nM
  TGI: 15500 nM
HL-60(TB) leukemia
  GI50: 297 nM
  TGI: 1300 nM
HOP-62 NSCLC
  GI50: 1490 nM
  TGI: 10900 nM
HS 578T breast
  GI50: 1960 nM
  TGI: 10100 nM
HT29 colon
  GI50: 4050 nM
  TGI: 15200 nM
IGROV1 ovarian
  GI50: 1050 nM
  TGI: 3610 nM
K-562 leukemia
  GI50: 895 nM
  TGI: 2680 nM
KM12 colon
  GI50: 1200 nM
  TGI: 4490 nM
LOX IMVI melanoma
  GI50: 1010 nM
  TGI: 2700 nM
M14 melanoma
  GI50: 1260 nM
  TGI: 4740 nM
MALME-3M melanoma
  GI50: 2230 nM
  TGI: 9160 nM
MCF7 breast
  GI50: 697 nM
  TGI: 3590 nM
MDA-MB-231 breast
  GI50: 1320 nM
  TGI: 9920 nM
MDA-MB-435
  GI50: 1960 nM
  TGI: 9180 nM
MOLT-4 leukemia
  GI50: 1550 nM
  TGI: 4890 nM
NCI-H226 lung
  GI50: 1280 nM
  TGI: 7120 nM
